Measurements: patent US20090304692A1, “TRIAZINE COMPOUNDS AS PI3 KINASE AND MTOR INHIBITORS” (Wyeth, priority 2008, published 2009)
Several values for one entry are separate records, joined by “and”; a condition that tells them apart may be missing. Equal values may be shown once. Read-outs that look alike come from different tables or passages of the source.

Tests used:
[1] = target: PI3K-α (Homo sapiens, UniProt P42336); test: PI3K-alpha fluorescence polarization assay; conditions: read-out: IC50 PI3Kα
PI3K-α, sequence (P42336 whole entry, species assumed): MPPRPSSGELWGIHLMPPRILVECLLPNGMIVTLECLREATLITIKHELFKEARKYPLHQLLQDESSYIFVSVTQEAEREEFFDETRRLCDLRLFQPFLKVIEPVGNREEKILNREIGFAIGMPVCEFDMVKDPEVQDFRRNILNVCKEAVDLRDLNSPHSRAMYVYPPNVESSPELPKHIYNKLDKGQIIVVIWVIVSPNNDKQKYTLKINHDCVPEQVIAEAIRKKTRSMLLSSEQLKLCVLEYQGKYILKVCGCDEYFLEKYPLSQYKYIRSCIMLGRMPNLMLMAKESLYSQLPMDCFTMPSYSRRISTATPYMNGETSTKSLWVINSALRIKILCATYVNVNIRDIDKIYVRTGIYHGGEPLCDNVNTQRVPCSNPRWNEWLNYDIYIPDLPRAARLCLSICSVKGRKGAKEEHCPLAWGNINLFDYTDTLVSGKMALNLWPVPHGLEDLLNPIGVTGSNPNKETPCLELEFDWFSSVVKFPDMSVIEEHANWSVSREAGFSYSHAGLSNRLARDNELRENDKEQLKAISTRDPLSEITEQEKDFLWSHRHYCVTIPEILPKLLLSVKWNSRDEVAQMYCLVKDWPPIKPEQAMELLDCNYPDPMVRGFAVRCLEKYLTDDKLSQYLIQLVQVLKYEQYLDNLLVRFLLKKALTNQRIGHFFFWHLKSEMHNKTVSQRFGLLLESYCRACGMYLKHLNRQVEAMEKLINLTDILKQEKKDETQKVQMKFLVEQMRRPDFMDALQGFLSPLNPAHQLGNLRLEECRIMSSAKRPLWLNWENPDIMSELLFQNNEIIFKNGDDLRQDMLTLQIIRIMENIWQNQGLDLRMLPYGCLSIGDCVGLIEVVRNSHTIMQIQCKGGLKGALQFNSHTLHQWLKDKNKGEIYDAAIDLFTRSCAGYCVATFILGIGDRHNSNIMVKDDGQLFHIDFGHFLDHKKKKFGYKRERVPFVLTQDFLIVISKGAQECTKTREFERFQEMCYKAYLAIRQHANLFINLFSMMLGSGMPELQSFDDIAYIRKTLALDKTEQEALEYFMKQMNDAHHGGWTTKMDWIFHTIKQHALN
PI3K-α, sequence (P27986 whole entry partner, species assumed): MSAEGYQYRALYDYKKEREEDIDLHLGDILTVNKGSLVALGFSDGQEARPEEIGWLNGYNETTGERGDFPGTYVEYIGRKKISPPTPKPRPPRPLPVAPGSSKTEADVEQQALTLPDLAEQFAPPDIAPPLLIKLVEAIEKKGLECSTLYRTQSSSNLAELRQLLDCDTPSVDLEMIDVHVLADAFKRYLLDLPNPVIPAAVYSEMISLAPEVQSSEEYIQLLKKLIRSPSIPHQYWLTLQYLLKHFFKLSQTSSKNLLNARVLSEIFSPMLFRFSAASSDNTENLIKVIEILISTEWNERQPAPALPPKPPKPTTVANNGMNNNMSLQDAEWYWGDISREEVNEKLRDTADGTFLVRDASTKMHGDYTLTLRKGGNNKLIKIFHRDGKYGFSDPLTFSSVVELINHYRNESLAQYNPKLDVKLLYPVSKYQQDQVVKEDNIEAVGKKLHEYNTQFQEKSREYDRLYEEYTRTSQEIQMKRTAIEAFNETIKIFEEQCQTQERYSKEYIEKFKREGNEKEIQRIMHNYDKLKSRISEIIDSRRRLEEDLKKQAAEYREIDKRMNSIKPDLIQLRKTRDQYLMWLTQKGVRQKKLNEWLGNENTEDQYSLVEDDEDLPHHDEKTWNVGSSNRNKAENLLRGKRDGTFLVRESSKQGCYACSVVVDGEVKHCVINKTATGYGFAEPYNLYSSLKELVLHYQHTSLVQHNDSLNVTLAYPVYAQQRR

[2] = system: human prostate LNCap tumor cell line; test: In vitro cell culture growth assay (MTS), LNCap; conditions: Homo sapiens, LNCaP, 72 h, read-out: IC50 LNCap
[3] = target: PI3K-γ (Homo sapiens, UniProt P48736); test: PI3K-gamma fluorescence polarization assay
PI3K-γ, sequence (P48736 whole entry, species assumed): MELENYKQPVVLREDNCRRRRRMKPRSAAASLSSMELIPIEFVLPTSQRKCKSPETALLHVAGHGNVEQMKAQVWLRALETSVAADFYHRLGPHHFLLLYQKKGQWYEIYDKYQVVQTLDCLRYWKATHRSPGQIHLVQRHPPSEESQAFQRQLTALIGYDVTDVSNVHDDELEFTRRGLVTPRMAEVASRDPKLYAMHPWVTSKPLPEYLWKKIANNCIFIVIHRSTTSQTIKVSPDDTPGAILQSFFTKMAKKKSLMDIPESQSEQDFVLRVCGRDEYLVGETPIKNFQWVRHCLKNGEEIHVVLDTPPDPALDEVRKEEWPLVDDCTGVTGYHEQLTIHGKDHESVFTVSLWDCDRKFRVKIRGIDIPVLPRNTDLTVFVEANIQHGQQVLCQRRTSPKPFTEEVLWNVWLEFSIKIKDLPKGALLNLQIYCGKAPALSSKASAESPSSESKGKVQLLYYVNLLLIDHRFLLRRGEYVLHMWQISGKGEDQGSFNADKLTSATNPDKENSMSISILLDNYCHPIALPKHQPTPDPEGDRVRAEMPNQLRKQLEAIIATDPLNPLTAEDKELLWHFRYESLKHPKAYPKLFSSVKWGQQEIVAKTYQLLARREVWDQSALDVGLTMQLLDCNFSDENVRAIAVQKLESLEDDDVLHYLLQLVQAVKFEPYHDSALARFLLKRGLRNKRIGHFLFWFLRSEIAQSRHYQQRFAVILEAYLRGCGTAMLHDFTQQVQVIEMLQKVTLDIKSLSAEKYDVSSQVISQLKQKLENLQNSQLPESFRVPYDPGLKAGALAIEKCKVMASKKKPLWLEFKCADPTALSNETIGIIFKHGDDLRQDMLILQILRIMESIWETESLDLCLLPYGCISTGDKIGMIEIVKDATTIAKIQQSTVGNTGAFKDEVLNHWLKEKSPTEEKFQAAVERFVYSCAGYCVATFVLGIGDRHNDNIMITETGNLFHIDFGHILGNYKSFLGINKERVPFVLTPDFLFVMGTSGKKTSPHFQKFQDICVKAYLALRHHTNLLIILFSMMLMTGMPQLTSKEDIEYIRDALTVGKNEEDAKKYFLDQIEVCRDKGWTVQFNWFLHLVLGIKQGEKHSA

[4] = target: Human mTOR (FLAG-TOR) (Homo sapiens, UniProt P42345); test: mTOR kinase assay (DELFIA format, purified enzyme); format: biochemical; conditions: read-out: IC50 mTOR
Human mTOR (FLAG-TOR), sequence (P42345 1360-2549 limits assumed): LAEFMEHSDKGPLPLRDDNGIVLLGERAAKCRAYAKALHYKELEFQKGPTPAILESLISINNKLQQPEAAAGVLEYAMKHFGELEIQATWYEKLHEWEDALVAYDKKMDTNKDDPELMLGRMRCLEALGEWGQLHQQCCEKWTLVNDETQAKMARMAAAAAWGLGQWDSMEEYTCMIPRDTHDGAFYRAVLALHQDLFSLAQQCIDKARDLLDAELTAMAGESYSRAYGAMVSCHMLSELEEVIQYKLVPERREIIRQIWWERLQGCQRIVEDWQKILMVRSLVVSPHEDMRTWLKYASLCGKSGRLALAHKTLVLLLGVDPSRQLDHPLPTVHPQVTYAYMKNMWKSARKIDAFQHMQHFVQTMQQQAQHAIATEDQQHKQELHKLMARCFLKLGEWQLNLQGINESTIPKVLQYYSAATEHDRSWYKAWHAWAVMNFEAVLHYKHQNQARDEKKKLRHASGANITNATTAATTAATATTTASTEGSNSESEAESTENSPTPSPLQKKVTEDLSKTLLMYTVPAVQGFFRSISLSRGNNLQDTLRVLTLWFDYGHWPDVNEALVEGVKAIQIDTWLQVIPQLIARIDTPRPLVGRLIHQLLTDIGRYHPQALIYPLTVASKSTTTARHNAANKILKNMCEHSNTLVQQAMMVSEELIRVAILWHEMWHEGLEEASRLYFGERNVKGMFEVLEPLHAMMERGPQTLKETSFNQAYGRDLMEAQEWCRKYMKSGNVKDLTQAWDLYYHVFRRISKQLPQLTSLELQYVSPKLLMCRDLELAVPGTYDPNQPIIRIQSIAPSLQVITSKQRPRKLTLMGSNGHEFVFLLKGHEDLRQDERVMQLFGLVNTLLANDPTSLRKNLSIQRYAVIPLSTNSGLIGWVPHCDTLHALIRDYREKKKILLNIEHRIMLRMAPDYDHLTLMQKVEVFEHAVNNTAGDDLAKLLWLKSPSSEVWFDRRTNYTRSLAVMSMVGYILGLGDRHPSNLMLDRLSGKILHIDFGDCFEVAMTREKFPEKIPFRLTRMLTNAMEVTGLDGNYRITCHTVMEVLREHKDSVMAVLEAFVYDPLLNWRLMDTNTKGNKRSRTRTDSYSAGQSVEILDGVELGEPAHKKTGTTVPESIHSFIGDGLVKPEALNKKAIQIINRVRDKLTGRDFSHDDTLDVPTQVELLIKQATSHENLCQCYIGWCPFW

SMILES	IC50 [1] [nM]	IC50 [2] [nM]	IC50 ([3]; read-out: IC50 PI3Kγ) [nM]	IC50 [4]	IC50 [3] [nM]
C[C@@H]1COCCN1c1nc(-c2ccc(NC(=O)Nc3ccc(N4CCN(C)CC4)cc3)cc2)nc(C2CCOCC2)n1 [Example 421, (R)-1-(4-(4-(3-methylmorpholino)-6-(tetrahydro-2H-pyran-4-yl)-1,3,5-triazin-2-yl)phenyl)-3-(4-(4-methylpiperazin-1-yl)phenyl)urea]	414	1	1570	0.72 nM	
COCC(COC)Oc1nc(-c2ccc(NC(=O)Nc3ccc(N4CCN(C)CC4)cc3)cc2)nc(N2CC3CCC(C2)O3)n1 [Example 175, 1-(4-{4-[2-methoxy-1-(methoxymethyl)ethoxy]-6-(8-oxa-3-azabicyclo[3.2.1]oct-3-yl)-1,3,5-triazin-2-yl}phenyl)-3-[4-(4-methylpiperazin-1-yl)phenyl]urea]	549	9.5	453	4.8 nM	
O=C(Nc1ccc(C(=O)N2CCOCC2)cc1)Nc1ccc(-c2nc(C3CCOCC3)nc(N3C4CCC3COC4)n2)cc1 [Example 460, 1-(4-(4-(3-oxa-8-azabicyclo[3.2.1]octan-8-yl)-6-(tetrahydro-2H-pyran-4-yl)-1,3,5-triazin-2-yl)phenyl)-3-(4-(morpholine-4-carbonyl)phenyl)urea]	143	< 0.8	1080	0.4 nM	
CCNC(=O)Nc1ccc(-c2nc(NC3CCNCC3)nc(N3C4CCC3COC4)n2)cc1 [Example 360, 1-(4-(4-(3-oxa-8-azabicyclo[3.2.1]octan-8-yl)-6-(piperidin-4-ylamino)-1,3,5-triazin-2-yl)phenyl)-3-ethylurea]	6670	10000		82 nM	> 10000

Second part, led by results:

IC50 [1] [nM]	IC50 [2] [nM]	IC50 ([3]; read-out: IC50 PI3Kγ) [nM]	IC50 [4]	SMILES	IC50 [3] [nM]
435	220	4630	16 nM	CCNc1nc(-c2ccc(NC(=O)Nc3cccnc3)cc2)nc(N2CC3CCC(C2)O3)n1 [Example 191, 1-{4-[4-(ethylamino)-6-(8-oxa-3-azabicyclo[3.2.1]oct-3-yl)-1,3,5-triazin-2-yl]phenyl}-3-pyridin-3-ylurea]	
393	370	1840	7.55 nM	CC(C)(C)OC(=O)N1CCN(c2nc(-c3ccc(NC(=O)Nc4ccncc4)cc3)nc(N3CC4CCC(C3)O4)n2)CC1 [Example 106, Tert-butyl 4-(4-(8-oxa-3-azabicyclo[3.2.1]octan-3-yl)-6-(4-(3-pyridin-4-ylureido)phenyl)-1,3,5-triazin-2-yl)piperazine-1-carboxylate]	
543	7	3640	1.8 nM	C[C@@H]1COCCN1c1nc(-c2ccc(NC(=O)Nc3ccc(OCCN(C)C)cc3)cc2)nc(N2CCOC[C@H]2C)n1 [Example 402, 1-(4-(4,6-bis((R)-3-methylmorpholino)-1,3,5-triazin-2-yl)phenyl)-3-(4-(2-(dimethylamino)ethoxy)phenyl)urea]	
261	1500	14000	4.6 nM	O=C(NCCO)Nc1ccc(-c2nc(Nc3ccc(N4CCNCC4)cc3)nc(N3CC4CCC(C3)O4)n2)cc1 [Example 328, 1-(2-hydroxyethyl)-3-(4-{4-(8-oxa-3-azabicyclo[3.2.1]oct-3-yl)-6-[(4-piperazin-1-ylphenyl)amino]-1,3,5-triazin-2-yl}phenyl)urea]	
42	260	827	3.3 nM and 3.4 nM	O=C(Nc1ccccc1)Nc1ccc(-c2nc(Nc3ccc(N4CCNCC4)cc3)nc(N3CC4CCC(C3)O4)n2)cc1 [Example 330, 1-(4-{4-(8-oxa-3-azabicyclo[3.2.1]oct-3-yl)-6-[(4-piperazin-1-ylphenyl)amino]-1,3,5-triazin-2-yl}phenyl)-3-phenylurea]	
